These results are taken from patent US8772494B2, “N-aryl piperidine substituted biphenylcarboxamides as inhibitors of apolipoprotein b” (Janssen Pharmaceutica N.V., priority 2003, dated 2014).

In one test the target is MTP (Homo sapiens, UniProt P55157). The experiment in a line: MTP assay (triglyceride transfer from donor to acceptor vesicles). It counts as biochemical. The following applies: MTP activity, percent triglyceride transfer, 37° C.; read-out: pIC50 values (= −log IC50 value) (converted). As to the method:
MTP activity was measured using an assay similar to one described by J. R. Wetterau and D. B. Zilversmit in Chemistry and Physics of Lipids, 38, 205-222 (1985). To prepare the donor and acceptor vesicles, the appropriate lipids in chloroform were put into a glass test tube and dried under a stream of N2. A buffer containing 15 mM Tris-HCl pH 7.5, 1 mM EDTA, 40 mM NaCl, 0.02% NaN3 (assay buffer) was added to the dried lipid. The mixture was vortexed briefly and the lipids were then allowed to hydrate for 20 min on ice. Vesicles were then prepared by bath sonication (Branson 2200) at room temperature for maximum 15 min. Butylated hydroxytoluene was included in all vesicle preparations at a concentration of 0.1%. The lipid transfer assay mixture contained donor vesicles (40 nmol phosphatidylcholine, 7.5 mol % of cardiolipin and 0.25 mol % glycerol tri [1-^14C]-oleate), acceptor vesicles (240 nmol phosphatidylcholine) and 5 mg BSA in a total volume of 675 μl in a 1.5 ml microcentrifuge tube. Test compounds were added dissolved in DMSO (0.13% final concentration). After 5 minutes of pre-incubation at 37° C., the reaction was started by the addition of MTP in 100 μl dialysis buffer. The reaction was stopped by the addition of 400 μl DEAE-52 cellulose pre-equilibrated in 15 mM Tris-HCl pH 7.5, 1 mM EDTA, 0.02% NaN3 (1:1, vol/vol). The mixture was agitated for 4 min and centrifuged for 2 min at maximum speed in an Eppendorf centrifuge (4° C.) to pellet the DEAE-52-bound donor vesicles. An aliquot of the supernatant containing the acceptor liposomes was counted and the [^14C]-counts were used to calculate the percent triglyceride transfer from donor to acceptor vesicles.
Resulting IC50 values are enumerated in Table C.2. When the calculated IC50 was below 7, not enough data points were available at the tested concentrations to calculate an IC50 value.

For test [1], the system named is ApoB secretion, HepG2 cells. The experiment in a line: Quantification of the secretion of ApoB. The test is classed as cell-based. To be noted: Homo sapiens, 24 hours of incubation, secreted apoB immunoprecipitated, read-out: pIC50 values (= −log IC50 value) (converted). As to the method: HepG2 cells were cultured in 24-well plates in MEM Rega 3 containing 10% fetal calf serum. At 70% confluency, the medium was changed and the test compound or carrier (DMSO, 0.4% final concentration) was added. After 24 hours of incubation, the medium was transferred to Eppendorf tubes and cleared by centrifugation. A sheep antibody directed against either apoB was added to the supernatant and the mixture was kept at 8° C. for 24 hours. Then, rabbit anti-sheep antibody was added and the immune complex was allowed to precipitate for 24 hours at 8° C. The immunoprecipitate was pelleted by centrifugation for 25 minutes at 1320 g and washed twice with a buffer containing 40 mM Mops, 40 mM NaH2PO4, 100 mM NaF, 0.2 mM DTT, 5 mM EDTA, 5 mM EGTA, 1% Triton-X-100, 0.5% sodium deoxycholate (DOC), 0.1% SDS, 0.2 μM leupeptin and 0.2 μM PMSF. Radioactivity in the pellet was quantified by liquid scintillation counting.
Resulting IC50 values are enumerated in Table C.1. When the calculated IC50 was below 6, not enough data points were available at the tested concentrations to calculate an IC50 value.

A value given as a limit tells only on which side of the number the result lay.

Sequence of MTP (P55157 19-894, species assumed): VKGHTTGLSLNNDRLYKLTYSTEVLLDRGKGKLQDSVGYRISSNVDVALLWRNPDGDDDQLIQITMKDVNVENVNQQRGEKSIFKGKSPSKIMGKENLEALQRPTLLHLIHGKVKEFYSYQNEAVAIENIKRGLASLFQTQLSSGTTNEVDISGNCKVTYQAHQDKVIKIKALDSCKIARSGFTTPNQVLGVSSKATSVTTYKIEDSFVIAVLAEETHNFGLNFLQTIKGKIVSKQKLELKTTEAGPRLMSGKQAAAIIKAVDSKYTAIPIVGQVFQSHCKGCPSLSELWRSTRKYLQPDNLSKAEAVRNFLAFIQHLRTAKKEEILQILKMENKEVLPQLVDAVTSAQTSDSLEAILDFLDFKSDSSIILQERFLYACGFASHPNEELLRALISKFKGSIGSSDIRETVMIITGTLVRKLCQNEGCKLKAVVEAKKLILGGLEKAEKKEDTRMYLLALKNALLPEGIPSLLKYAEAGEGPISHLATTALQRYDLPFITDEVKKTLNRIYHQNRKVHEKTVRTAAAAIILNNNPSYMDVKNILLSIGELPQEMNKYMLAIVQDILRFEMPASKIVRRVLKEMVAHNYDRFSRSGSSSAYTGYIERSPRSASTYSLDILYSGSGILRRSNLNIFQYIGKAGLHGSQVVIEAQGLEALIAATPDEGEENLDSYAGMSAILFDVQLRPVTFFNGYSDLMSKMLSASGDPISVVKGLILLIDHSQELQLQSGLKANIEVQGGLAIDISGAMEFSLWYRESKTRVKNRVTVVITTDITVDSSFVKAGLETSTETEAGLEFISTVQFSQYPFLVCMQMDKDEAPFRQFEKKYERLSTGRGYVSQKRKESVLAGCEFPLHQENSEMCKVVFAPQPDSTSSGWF
Sequence of MTP (P07237 18-508 partner, species assumed): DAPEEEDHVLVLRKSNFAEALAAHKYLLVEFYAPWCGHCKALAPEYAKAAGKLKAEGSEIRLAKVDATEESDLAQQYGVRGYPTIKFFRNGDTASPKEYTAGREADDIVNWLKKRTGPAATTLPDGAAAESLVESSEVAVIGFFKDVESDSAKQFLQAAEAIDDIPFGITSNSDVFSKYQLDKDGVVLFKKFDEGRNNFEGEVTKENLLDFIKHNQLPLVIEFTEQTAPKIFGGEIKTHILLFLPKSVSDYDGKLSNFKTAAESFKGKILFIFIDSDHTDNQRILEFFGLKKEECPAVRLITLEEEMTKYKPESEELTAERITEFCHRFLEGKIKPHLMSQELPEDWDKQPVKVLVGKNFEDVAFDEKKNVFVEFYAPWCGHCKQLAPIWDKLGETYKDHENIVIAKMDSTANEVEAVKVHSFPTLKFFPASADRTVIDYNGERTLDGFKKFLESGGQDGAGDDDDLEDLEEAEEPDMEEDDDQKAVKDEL

Consider `CCOC(=O)C1CCCCN1C(=O)CC1CCN(c2ccc(NC(=O)c3ccccc3-c3ccc(C(F)(F)F)cc3)cc2)CC1` (stereo not drawn) [Compound 1], for which the values for the IC50 (on MTP; in test [1]) were over 100 nM and over 1000 nM, respectively.
Regarding `CCOC(=O)C1CCCN(C(=O)CC2CCN(c3ccc(NC(=O)c4ccccc4-c4ccc(C(F)(F)F)cc4)cc3)CC2)C1` (stereo not drawn) [Compound 2], the IC50 – broadly, the midpoint of a concentration-inhibition curve – on MTP was over 1000 nM; in test [1], 65.3 nM.
The corresponding values for `COC(=O)C(C)NC(=O)CC1CCN(c2ccc(NC(=O)c3ccccc3-c3ccc(C(F)(F)F)cc3)cc2)CC1` (stereo not drawn) [Compound 3] are 7.82 nM and 61.4 nM.
In the same order, the values of `COC(=O)C(NC(=O)CC1CCN(c2ccc(NC(=O)c3ccccc3-c3ccc(C(F)(F)F)cc3)cc2)CC1)C(C)C` (stereo not drawn) [Compound 4] are 41.3 nM and 48.5 nM.
In the same order, the values of `CCOC(=O)C(C)NC(=O)CC1CCN(c2ccc(NC(=O)c3ccccc3-c3ccc(C(F)(F)F)cc3)cc2)CC1` (stereo not drawn) [Compound 5] are 2.06 nM and under 30 nM.
With `CCOC(=O)C(Cc1c[nH]c2ccccc12)NC(=O)CC1CCN(c2ccc(NC(=O)c3ccccc3-c3ccc(C(F)(F)F)cc3)cc2)CC1` (stereo not drawn) [Compound 6], the results for the IC50 (on MTP; in test [1]) were 9.31 nM and under 30 nM, respectively.
In the case of `CCOC(=O)C(CCSC)NC(=O)CC1CCN(c2ccc(NC(=O)c3ccccc3-c3ccc(C(F)(F)F)cc3)cc2)CC1` (stereo not drawn) [Compound 7], the IC50 was 25.5 nM at MTP and 138 nM in test [1].
Consider `CCOC(=O)CC(NC(=O)CC1CCN(c2ccc(NC(=O)c3ccccc3-c3ccc(C(F)(F)F)cc3)cc2)CC1)c1ccc2c(c1)OCO2` (stereo not drawn) [Compound 8], for which the IC50 at MTP is 20.1 nM; in test [1] it was under 30 nM.
Consider `COC(=O)[C@H]1CCCCN1C(=O)CC1CCN(c2ccc(NC(=O)c3ccccc3-c3ccc(C(F)(F)F)cc3)cc2)CC1` [Compound 9], for which the IC50 on MTP is over 100 nM; in test [1], over 1000 nM.
In the same order, the values of `COC(=O)[C@@H]1CCCCN1C(=O)CC1CCN(c2ccc(NC(=O)c3ccccc3-c3ccc(C(F)(F)F)cc3)cc2)CC1` [Compound 10] are over 100 nM and over 1000 nM.
In the same order, the values of `CCOC(=O)[C@H]1CCCN(C(=O)CC2CCN(c3ccc(NC(=O)c4ccccc4-c4ccc(C(F)(F)F)cc4)cc3)CC2)C1` [Compound 11] are over 100 nM and over 1000 nM.
For the compound `CCOC(=O)[C@@H]1CCCN(C(=O)CC2CCN(c3ccc(NC(=O)c4ccccc4-c4ccc(C(F)(F)F)cc4)cc3)CC2)C1` [Compound 12], the IC50 at MTP is over 100 nM; in test [1], over 1000 nM.
Regarding `CCOC(=O)[C@H]1CCCN1C(=O)CC1CCN(c2ccc(NC(=O)c3ccccc3-c3ccc(C(F)(F)F)cc3)cc2)CC1` [Compound 13], the IC50 was over 100 nM at MTP and over 1000 nM in test [1].
In the same order, the values of `CCOC(=O)[C@@H]1C[C@@H](O)CN1C(=O)CC1CCN(c2ccc(NC(=O)c3ccccc3-c3ccc(C(F)(F)F)cc3)cc2)CC1` [Compound 14] are over 100 nM and over 1000 nM.
`COC(=O)C1C[C@@H](O)CN1C(=O)CC1CCN(c2ccc(NC(=O)c3ccccc3-c3ccc(C(F)(F)F)cc3)cc2)CC1` (stereo partly drawn) [Compound 15]: the IC50 at MTP is over 100 nM; in test [1], over 1000 nM.
The corresponding values for `COC(=O)[C@@H]1C[C@H](O)CN1C(=O)CC1CCN(c2ccc(NC(=O)c3ccccc3-c3ccc(C(F)(F)F)cc3)cc2)CC1` [Compound 16] are over 100 nM and over 1000 nM.
`CCOC(=O)[C@H](C)NC(=O)CC1CCN(c2ccc(NC(=O)c3ccccc3-c3ccc(C(F)(F)F)cc3)cc2)CC1` [Compound 17]: the results for the IC50 (at MTP; in test [1]) were 5.6 nM and over 1000 nM, respectively.
The corresponding values for `CCOC(=O)[C@@H](C)NC(=O)CC1CCN(c2ccc(NC(=O)c3ccccc3-c3ccc(C(F)(F)F)cc3)cc2)CC1` [Compound 18] are 3.42 nM and under 30 nM.
On to `CCOC(=O)[C@@H](NC(=O)CC1CCN(c2ccc(NC(=O)c3ccccc3-c3ccc(C(F)(F)F)cc3)cc2)CC1)C(C)C` [Compound 19], for which the IC50 was over 100 nM on MTP and 116 nM in test [1].
In the same order, the values of `CCOC(=O)[C@H](NC(=O)CC1CCN(c2ccc(NC(=O)c3ccccc3-c3ccc(C(F)(F)F)cc3)cc2)CC1)C(C)C` [Compound 20] are 6.37 nM and under 30 nM.
Regarding `CCOC(=O)[C@H](NC(=O)CC1CCN(c2ccc(NC(=O)c3ccccc3-c3ccc(C(F)(F)F)cc3)cc2)CC1)c1ccccc1` [Compound 21], the IC50 is 3.37 nM at MTP and 121 nM in test [1].
As for `CCOC(=O)[C@@H](NC(=O)CC1CCN(c2ccc(NC(=O)c3ccccc3-c3ccc(C(F)(F)F)cc3)cc2)CC1)c1ccccc1` [Compound 22], the IC50 is 8.93 nM at MTP and 54.8 nM in test [1].
Take `CCOC(=O)[C@H](Cc1ccccc1)NC(=O)CC1CCN(c2ccc(NC(=O)c3ccccc3-c3ccc(C(F)(F)F)cc3)cc2)CC1` [Compound 24]: the IC50 was 76.7 nM on MTP and 841 nM in test [1].
For `CCOC(=O)[C@@H](Cc1ccccc1)NC(=O)CC1CCN(c2ccc(NC(=O)c3ccccc3-c3ccc(C(F)(F)F)cc3)cc2)CC1` [Compound 25], the 50% inhibitory concentration (IC50) in test [1] was over 1000 nM.
`CCOC(=O)CCNC(=O)CC1CCN(c2ccc(NC(=O)c3ccccc3-c3ccc(C(F)(F)F)cc3)cc2)CC1` [Compound 26]: the figures for the IC50 (at MTP; in test [1]) were 8.41 nM and 58.6 nM, respectively.
The corresponding values for `COC(=O)[C@H](CCN)NC(=O)CC1CCN(c2ccc(NC(=O)c3ccccc3-c3ccc(C(F)(F)F)cc3)cc2)CC1` [Compound 27] are over 100 nM and 643 nM.
In the same order, the values of `COC(=O)[C@H](CCCN)NC(=O)CC1CCN(c2ccc(NC(=O)c3ccccc3-c3ccc(C(F)(F)F)cc3)cc2)CC1` [Compound 28] are over 100 nM and over 1000 nM.
Take `COC(=O)[C@H](CCCCN)NC(=O)CC1CCN(c2ccc(NC(=O)c3ccccc3-c3ccc(C(F)(F)F)cc3)cc2)CC1` [Compound 29]: the IC50 was over 100 nM on MTP and over 1000 nM in test [1].
The corresponding values for `CCOC(=O)[C@H](CC(C)C)NC(=O)CC1CCN(c2ccc(NC(=O)c3ccccc3-c3ccc(C(F)(F)F)cc3)cc2)CC1` [Compound 30] are 22 nM and 575 nM.
In the same order, the values of `CCOC(=O)[C@H](Cc1ccc(O)cc1)NC(=O)CC1CCN(c2ccc(NC(=O)c3ccccc3-c3ccc(C(F)(F)F)cc3)cc2)CC1` [Compound 31] are 81.1 nM and over 1000 nM.
With `CCOC(=O)[C@@H]1CCCN1C(=O)CC1CCN(c2ccc(NC(=O)c3ccccc3-c3ccc(C(F)(F)F)cc3)cc2)CC1` [Compound 32], the IC50 was 31.6 nM at MTP and 406 nM in test [1].
In the same order, the values of `CCOC(=O)CN(C)C(=O)CC1CCN(c2ccc(NC(=O)c3ccccc3-c3ccc(C(F)(F)F)cc3)cc2)CC1` [Compound 33] are 69.5 nM and over 1000 nM.
For the compound `CCOC(=O)C[C@H](NC(=O)CC1CCN(c2ccc(NC(=O)c3ccccc3-c3ccc(C(F)(F)F)cc3)cc2)CC1)C(=O)OCC` [Compound 36], at MTP, the IC50 is 39.4 nM.
In the case of `CCOC(=O)[C@H](C)NC(=O)CC1CCN(c2ccc(NC(=O)c3cccc(C)c3-c3ccc(C(F)(F)F)cc3)cn2)CC1` [Compound 45], in test [1], the IC50 is 962 nM.
`COC(=O)[C@H](C)NC(=O)CC1CCN(c2ccc(NC(=O)c3cccc(C)c3-c3ccc(C(F)(F)F)cc3)cc2)CC1` [Compound 46]: in test [1], the IC50 is 218 nM.
With `CCOC(=O)[C@H](C)NC(=O)CC1CCN(c2ccc(N(C)C(=O)c3ccccc3-c3ccc(C(F)(F)F)cc3)cc2)CC1` [Compound 47], in test [1], the IC50 is over 1000 nM.
Take `CCOC(=O)[C@H](C)NC(=O)CC1CCN(c2ccc(NC(=O)c3cccc(C)c3-c3ccc(C(F)(F)F)cc3)nc2)CC1` [Compound 48]: the IC50 in test [1] was 670 nM.
For the compound `CCOC(=O)[C@H](C)NC(=O)CC1CCN(c2ccc(N(C)C(=O)c3cccc(C)c3-c3ccc(C(F)(F)F)cc3)cn2)CC1` [Compound 50], the IC50 at MTP is 10.4 nM.
